Drawing on patent US20240239801A1, “PYRIMIDO[5,4,D]PYRIMIDINE COMPOUNDS, COMPOSITIONS COMPRISING THEM AND USES THEREOF” (Université de Montréal, priority 2021, published 2024), this text covers EC50 and IC50 for six compounds.

Assay [1] relates to A375. The experiment in a line: Proliferation inhibition, CellTiter-Glo. Type of assay: cell-based, human. Particulars: Table D-1, 3 days, read-out: A375 Prolif. EC50. The protocol: (§1) All cancer cell lines (A375, A101D, A2058, RKO, HT29 SK-MEL 30, IPC298, HepG2, HCT-116, Lovo, SW620, SW480, NCI-H358, NCI-H2122, Calu-6, NCIH2087, NCIH1755, NCIH1666 and Mewo) were obtained from ATCC and cultured in RPMI-1640 medium (Gibco) supplemented with 5% heat inactivated fetal bovine serum (FBS, Wisent) at 37° C. under 5% CO2. Cells were maintained in T175 flasks (Greiner). They were passaged by removing the culture medium, washing once in 10 mL of room temperature Phosphate Buffered Saline (PBS; Wisent) and incubating at 37° C. with 2 mL of 0.05% Trypsin (Thermo-Fisher). Trypsin was then inactivated by adding complete growth medium and the cells were then replated in a T175 culture dish at the appropriate dilution. All cell lines were routinely tested for mycoplasma contamination. Tissue type and mutational status of each cell line can be found in Table B.
(§2) CellTiter-Glo® viability analysis was conducted on cells plated in […] of complete RPMI-1640 growth medium in 96-well flat-bottomed white opaque plates (Greiner or Corning) at a density indicated in Table E (for each CCL, number of cells plated per well of a 96-well plate to perform the CellTiter-Glo® cell viability assay). The cell density in cells/cm^2 would correspond to cell number divided by the area of one well of a 96-well plate (0.32 cm^2). Cells were maintained overnight at 37° C. under 5% CO2 before treatment with compounds' dilution series for 3 days.
(§3) In a dilution series 100 μL/well of test substance dilution prepared in complete RPMI-1640 growth media was added to the cells plated initially in 100 μL of growth media. The dilution series is selected so that ten concentrations cover a range from 30 μM or 10 μM to […]. If necessary (as in the case of A375 cells, which were more sensitive to the compounds) the initial concentration of 10 μM is lowered to 1 μM and further dilution is carried out accordingly. The final concentration of DMSO in the assay is set to 0.5%.
(§4) After 3 days of incubation, the growth media were removed by aspiration and 60 μL of diluted CellTiter-Glo® reagent (10 μL CellTiter-Glo® reagent+50 μL of PBS) was added to each well. Cells were allowed to lyse and to equilibrate in CellTiter-Glo® reagent by 5 min incubation on a plate shaker followed by 10 min incubation at room temperature. Luminescence signals were then acquired on a Synergy Neo2 plate reader (Biotek).
(§5) The effect of each compound dilution on the proliferation of cancer cell lines was expressed in % inhibition and calculated as follows. An internal 100% inhibition control (1 μM of trametinib; cat. No. HY-10999; MedChem Express; CAS No. 871700-17-3) was included in each plate and used as a measure of CellTiter-Glo® signal background. The value obtained for trametinib was subtracted from each data point. The average of DMSO (vehicle) controls (set as 0% inhibition) was established and used to calculate % inhibition:
(§6) The ability of each compound to inhibit proliferation was expressed as a EC50 value obtained by plotting the effect values for each data point of a dilution series and fitting the obtained curves using a log(agonist) versus response−variable slope (four parameters) function using GraphPadPrism (V7.0) or Dotmatics Screening Ultra platform.

Assay [2] deals with HepG2. The experiment in a line: Proliferation inhibition, CellTiter-Glo. The assay is classed as cell-based, human. Particulars: Table D-1, 3 days, read-out: HepG2 Prolif. EC50. The protocol: as §1, §2, §3, §4, §5, §6
The subject of assay [3] is Lovo. Kind of assay: Proliferation inhibition, CellTiter-Glo. Particulars: Table D-2, 3 days, read-out: Lovo Prolif. EC50. Type of assay: cell-based, human. The protocol:
as §1, §2, §3, §4, §5, §6

In assay [4] the test system is Mewo. Kind of assay: Proliferation inhibition, CellTiter-Glo. The assay is classed as cell-based, human. Particulars: Table D-2, 3 days, read-out: Mewo Prolif. EC50. The protocol: as §1, §2, §3, §4, §5, §6
The test system of assay [5] is SK-MEL30. The experiment in a line: Proliferation inhibition, CellTiter-Glo. The assay is classed as cell-based, human. Particulars: Table D-1, 3 days, read-out: SK-MEL30 Prolif. EC50. The protocol: as §1, §2, §3, §4, §5, §6
Assay [6] deals with CRAF (Homo sapiens, UniProt P04049). Kind of assay: CRAF kinase activity assay (ADP-Glo). Type of assay: biochemical. The conditions noted are these: Table 3. Summed up: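 CRAF inhibition was measured by ADP-Glo. 0.375 nM purified GST-tagged CRAF was combined with 75 nM kinase-dead MEK1 substrate and 10 μM ATP in 50 mM HEPES pH 7.5, 10 mM MgCl2, 1 mM EDTA, 0.01% Brij-35 and 2 mM DTT, with nine compound concentrations from 100 nM to 0.01 nM (0.05% DMSO), in 384-well plates for 2 hours at 30° C. Luminescence was read after adding ADP-Glo and Kinase Detection reagents. IC50 came from four-parameter curve fits.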

Where two headings read alike, the source gives them in different places.

CRAF, sequence (P04049 whole entry): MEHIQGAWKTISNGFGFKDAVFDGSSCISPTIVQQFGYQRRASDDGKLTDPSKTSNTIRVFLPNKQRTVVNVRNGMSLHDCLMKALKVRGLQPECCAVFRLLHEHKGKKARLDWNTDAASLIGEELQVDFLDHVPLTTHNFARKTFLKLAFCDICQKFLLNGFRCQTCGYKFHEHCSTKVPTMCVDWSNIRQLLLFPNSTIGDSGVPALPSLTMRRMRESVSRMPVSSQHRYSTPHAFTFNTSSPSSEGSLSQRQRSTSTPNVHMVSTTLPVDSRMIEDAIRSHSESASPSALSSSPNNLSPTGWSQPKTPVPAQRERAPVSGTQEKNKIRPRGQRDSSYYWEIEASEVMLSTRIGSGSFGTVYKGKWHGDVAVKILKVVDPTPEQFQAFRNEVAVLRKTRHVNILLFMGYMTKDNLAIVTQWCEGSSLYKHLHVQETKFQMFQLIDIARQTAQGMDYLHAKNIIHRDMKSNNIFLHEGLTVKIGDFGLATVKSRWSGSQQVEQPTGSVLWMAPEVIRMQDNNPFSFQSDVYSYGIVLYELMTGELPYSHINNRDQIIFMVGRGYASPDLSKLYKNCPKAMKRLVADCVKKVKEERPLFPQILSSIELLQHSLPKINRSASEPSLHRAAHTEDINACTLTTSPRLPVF

For `Cc1ccc2c(Nc3cccc(Cl)c3F)nccc2c1NC(=O)c1csc2c(N)ncnc12` [Belvarafenib, reference compound], the EC50 in assay [1] (Homo sapiens, A-375, 72 h) was < 0.3 µM; in assay [2] (Homo sapiens, HepG2, 72 h) it was < 0.3 µM; in assay [3] (Homo sapiens, LoVo, 72 h), < 0.3 µM; in assay [4] (Homo sapiens, MeWo, 72 h), 0.3 to 3 µM; in assay [5] (Homo sapiens, SK-MEL-30, 72 h), < 0.3 µM.

Take `Nc1cccc2c1ncn2-c1ncc2ncnc(Nc3c(F)ccc(NS(=O)(=O)c4cccc(Cl)c4Cl)c3F)c2n1` [Example 80]: the IC50 in assay [6] is < 0.01 µM.

As for `Cc1c(F)cccc1S(=O)(=O)Nc1ccc(F)c(Nc2ncnc3cnc(-n4cc(C(=O)N(C)Cc5ccncc5)c5ccccc54)nc23)c1F` [Example 98], the IC50 in assay [6] was 0.01 to 0.05 µM. Also, the EC50 in assay [1], in assay [2], in assay [3], in assay [4] and in assay [5] was < 0.3 µM in each case.

Regarding `COc1ccc(S(=O)(=O)Nc2ccc(F)c(Nc3ncnc4cnc(-n5cnc6c(N)cccc65)nc34)c2F)c(C)c1Cl` [Example 112], the IC50 in assay [6] was 0.01 to 0.05 µM. For the same compound, the EC50 is < 0.3 µM in assay [1]; < 0.3 µM in assay [2]; < 0.3 µM in assay [3]; 0.3 to 3 µM in assay [4]; < 0.3 µM in assay [5].

With `Cc1c(F)cccc1S(=O)(=O)Nc1ccc(F)c(Nc2ncnc3cnc(-n4cnc5c(-c6cccnc6)cccc54)nc23)c1F` [Example 114], the IC50 in assay [6] fell in the range of 0.01 to 0.05 µM. The EC50 was < 0.3 µM in assay [1] (Homo sapiens, A-375, 72 h); < 0.3 µM in assay [2] (Homo sapiens, HepG2, 72 h); < 0.3 µM in assay [3] (Homo sapiens, LoVo, 72 h); 0.3 to 3 µM in assay [4] (Homo sapiens, MeWo, 72 h); 0.3 to 3 µM in assay [5] (Homo sapiens, SK-MEL-30, 72 h).

On to `O=S(=O)(Nc1ccc(F)c(Nc2ncnc3cnc(-n4cnc5c(N6CCC7(CCCO7)CC6)cccc54)nc23)c1F)c1cccc(Cl)c1Cl` [Example 129], for which the half-inhibitory concentration (IC50) in assay [6] was 0.01 to 0.05 µM. Further, the EC50 in assay [1], in assay [2], in assay [3], in assay [4] and in assay [5] was < 0.3 µM each time.
